The source of these data is patent publication US7332623B2 (Kaohsiung Medical University, priority 2003, dated 2008).

For series [1], the system named is KB cell. The note with it: Table 1; cited from earlier work.
Series [2] deals with Hep2,2,15. The following applies: Hep2,2,15, Table 1; cited from earlier work.
Series [3] concerns DLD (DLD-1): human colon adenocarcinoma. Put plainly: In vitro anticancer assay (cytotoxicity), solid tumor cells.
Series [4] deals with NCI (NCI-H661): human lung large cell carcinoma. Described as above.
The target in series [5] is T1, topoisomerase I (Homo sapiens, UniProt P11387).
T1 sequence (P11387 1-765): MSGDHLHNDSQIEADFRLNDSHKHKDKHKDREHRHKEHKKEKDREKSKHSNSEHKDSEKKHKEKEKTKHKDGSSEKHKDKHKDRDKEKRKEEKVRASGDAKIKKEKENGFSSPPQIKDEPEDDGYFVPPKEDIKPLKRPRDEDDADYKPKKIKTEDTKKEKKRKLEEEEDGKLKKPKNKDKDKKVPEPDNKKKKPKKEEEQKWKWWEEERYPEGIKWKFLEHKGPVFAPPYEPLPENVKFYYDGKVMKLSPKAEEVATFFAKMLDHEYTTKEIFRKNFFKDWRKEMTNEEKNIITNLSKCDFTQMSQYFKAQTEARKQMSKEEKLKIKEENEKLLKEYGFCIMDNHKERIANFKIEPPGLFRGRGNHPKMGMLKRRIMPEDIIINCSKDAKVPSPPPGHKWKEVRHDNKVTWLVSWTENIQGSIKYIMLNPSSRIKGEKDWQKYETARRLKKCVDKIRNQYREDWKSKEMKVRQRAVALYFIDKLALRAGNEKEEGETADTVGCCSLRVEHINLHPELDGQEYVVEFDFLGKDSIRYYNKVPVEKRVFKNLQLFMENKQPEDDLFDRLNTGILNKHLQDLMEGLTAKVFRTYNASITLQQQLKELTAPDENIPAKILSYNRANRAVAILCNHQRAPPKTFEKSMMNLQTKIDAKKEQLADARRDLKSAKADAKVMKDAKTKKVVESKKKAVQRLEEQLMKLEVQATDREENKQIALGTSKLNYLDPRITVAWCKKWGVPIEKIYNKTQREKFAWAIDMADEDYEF
Put plainly: Topoisomerase I assay, cleavage of supercoiled pGEM9zf(−) DNA, gel electrophoresis. In kind it is biochemical. The note with it: from FIGS. 1 and 2.

Series [6] relates to Hela: human cervix epitheloid carcinoma.
For series [7], the system named is DLD (DLD-1): human colon adenocarcinoma.
Series [8] deals with Hepa: human hepatoma.
Series [9] has as its system Breast cancer cell MCF-7. Put plainly: Preliminary cytotoxicity test. In kind it is cell-based, human.
Series [10] has as its system Non-small cell Lung cancer cell NCI-H460. Nature of the series: Preliminary cytotoxicity test. Format: cell-based, human.
Series [11] concerns CNS cancer cell SF-268. Nature of the series: Preliminary cytotoxicity test. Format: cell-based, human.
The test system of series [12] is K-562 cells. Put plainly: Cell cycle distribution by flow cytometry. In kind it is cell-based, human. The following applies: K-562, 72 hrs.
Protocol: Samples of 1×10^6 Hep G2 cells were plated on a 6 cm tissue culture dish, and the cells were allowed to recover 24 hrs before any treatment. Thereafter, DMSO or a test compound (1 μM, 10 μM or 50 μM) was added to the cells for 1 hr in complete medium at 37° C., washed twice with PBS, and incubated in fresh media for the incubation time. Cell were harvested with trypsin and washed twice with PBS. Samples were fixed in 70% ethanol and stored at 4° C. for at least 24 hrs and then washed once with McIlvaine's buffer (0.2M Na2HPO4, 0.1M citric acid, pH=7.5) and once again with PBS. Samples were stained with PI (propidium iodide) staining solution (PBS containing 100 μg/ml, RNase A and 10 μg/ml PI [Sigma]), processed on a Coulter Elite flow cytometry, and the data analyzed with the Mutiplus AV program.
Series [13] concerns Leukemia cell lines. Nature of the series: NCI panel, average of cell lines. The following applies: Homo sapiens, read-out: cytotoxicity GI50, average value of all the cancer cell lines.
Series [14] deals with Non-Small Cell Lung Cancer cell lines. Nature of the series: NCI panel, average of cell lines. The following applies: Homo sapiens, read-out: cytotoxicity GI50, average value of all the cancer cell lines.
Series [15] has as its system Colon Cancer cell lines. Put plainly: NCI panel, average of cell lines. The following applies: Homo sapiens, read-out: cytotoxicity GI50, average value of all the cancer cell lines.
For series [16], the system named is CNS Cancer cell lines. Put plainly: NCI panel, average of cell lines. The following applies: Homo sapiens, read-out: cytotoxicity GI50, average value of all the cancer cell lines.
For series [17], the system named is Melanoma cell lines. Nature of the series: NCI panel, average of cell lines. The following applies: Homo sapiens, read-out: cytotoxicity GI50, average value of all the cancer cell lines.
Series [18] relates to Ovarian Cancer cell lines. Nature of the series: NCI panel, average of cell lines. The note with it: Homo sapiens, read-out: cytotoxicity GI50, average value of all the cancer cell lines.
Series [19] deals with Renal Cancer cell lines. Put plainly: NCI panel, average of cell lines. The following applies: Homo sapiens, read-out: cytotoxicity GI50, average value of all the cancer cell lines.
In series [20] the test system is Prostate Cancer cell lines. Put plainly: NCI panel, average of cell lines. The following applies: Homo sapiens, read-out: cytotoxicity GI50, average value of all the cancer cell lines.
Series [21] has as its system Breast Cancer cell lines. Nature of the series: NCI panel, average of cell lines. The note with it: Homo sapiens, read-out: cytotoxicity GI50, average value of all the cancer cell lines.
In series [22] the test system is KB: human oral epidermoid carcinoma.

The structures appear in SMILES notation. Where two headings read alike, the source gives them in different places. Marks after values point to notes of the source that are not given here.

The IC50 is the point on the concentration scale where inhibition reaches its midpoint. Take `N#Cc1ccccc1C#C/C=C\C#CCCCOC1CCCCO1` (centres unmarked) [Compound 2, 2-(9-(Tetrahydropyranyloxy)-3(Z)-nonen-1,5-diynyl)-benzonitrile]: the figures for the IC50 in series [1] and in [2] were under 0.01 µM and over 10 µM, respectively. The “IC50 Values of Cytotoxicities” value in series [3] and in series [4] was “— (“—” means IC50 > 20 μg/ml)” each time.

For `CCCCCCC#C/C=C\C#Cc1ccc(C(C)=O)cc1` [Compound 23, 4-(3-(Z)-Dodecen-1,5-diynyl)acetophenone], the “topo I inhibitor, overall conclusion” value in series [5] is given as “displayed topo I inhibitory activities”. Moreover, the “IC50 Values of Cytotoxicities” value in [6], in [7] and in [8] was “— (key: “—” means IC50 > 20 μg/ml)” throughout.

Turning to `N#Cc1ccccc1C#CC=CC#Cc1cnccn1` [Compound 30, 2-(6-(2-pyrazinyl)-3-hexen-1,5-diynyl)benzonitrile], the Growth percentage in series [9] is on record as 73%; in series [10], 8* %; in series [11] it was 84%. Further, the “accumulation of G2/M stage cells” value in [12] is “an accumulation of G2/M stage cells”. Further, the GI50 in series [13] was 5.05 µM; in series [14], 11.8 µM; in [15] it was 7.54 µM; in series [16] it was 32.2 µM; in series [17], 18.7 µM; in series [18], 38.1 µM. Further, the GI50 in [19] came to 27 µM; in series [20], 33.6 µM; in series [21], 33.3 µM.

Regarding `CCCCC#C/C=C\C#Cc1ccc(Cl)cc1` [Compound 13], the “IC50 Values of Cytotoxicities” value in series [22] and in series [8] was “— (key: “—” means IC50 > 20 μg/ml)” each time.
